For 20 molecules, IC50 results are on record in patent US11814367B2, “Inhibitors of glycogen synthase 1 (GYS1) and methods of use thereof” (Maze Therapeutics, Inc., priority 2021, dated 2023).

For assay [1], the target named is hGYS1 enzyme (recombinant hGYS1/GN1 protein) (Homo sapiens (Human), UniProt P13807). Kind of assay: GYS1 coupled enzyme assay (PK/LDH). It is filed as biochemical. To be noted: hGYS1/GN1 50 nM, UDP-Glucose 0.8 mM, G6P 1 mM; geometric mean of at least 2 runs.
Assay [2] deals with hGYS2 enzyme (recombinant hGYS2/GN1 protein) (Homo sapiens (Human), UniProt P54840). Description: GYS2 coupled enzyme assay (PK/LDH). It is filed as biochemical. To be noted: geometric mean of at least 2 assay runs on separate days, read-out: Avg_IC50. The gist of the method: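 Read-out: NADH loss at 340 nm, read each minute for 10 min, slope normalized to controls, duplicate % inhibition fit to Hill (0–100). Enzyme: 200 nM hGYS2/GN1; substrate 2 mM UDP-glucose plus 0.2% glycogen and 2 mM G6P; pH 7.5 Tris, 2.5% DMSO.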
Chain of hGYS2 enzyme (recombinant hGYS2/GN1 protein) (P54840 whole entry): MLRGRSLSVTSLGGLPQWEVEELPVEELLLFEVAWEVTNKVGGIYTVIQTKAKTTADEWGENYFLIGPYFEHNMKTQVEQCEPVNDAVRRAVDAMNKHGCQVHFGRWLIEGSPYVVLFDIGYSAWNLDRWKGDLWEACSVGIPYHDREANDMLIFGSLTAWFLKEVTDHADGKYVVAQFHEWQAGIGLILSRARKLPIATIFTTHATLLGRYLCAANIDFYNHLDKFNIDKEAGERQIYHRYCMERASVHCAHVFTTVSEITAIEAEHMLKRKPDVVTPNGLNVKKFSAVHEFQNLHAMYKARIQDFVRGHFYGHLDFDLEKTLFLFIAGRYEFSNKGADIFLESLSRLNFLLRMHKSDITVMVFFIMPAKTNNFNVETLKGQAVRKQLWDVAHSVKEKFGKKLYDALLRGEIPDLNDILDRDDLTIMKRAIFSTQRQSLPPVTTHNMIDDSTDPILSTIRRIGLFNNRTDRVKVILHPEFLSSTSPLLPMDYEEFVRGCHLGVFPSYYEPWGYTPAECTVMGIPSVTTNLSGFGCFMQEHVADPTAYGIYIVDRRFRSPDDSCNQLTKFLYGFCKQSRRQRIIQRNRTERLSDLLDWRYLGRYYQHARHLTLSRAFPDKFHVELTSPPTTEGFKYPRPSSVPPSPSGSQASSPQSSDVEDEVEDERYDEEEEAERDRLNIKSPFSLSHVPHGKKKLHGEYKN
Chain of hGYS2 enzyme (recombinant hGYS2/GN1 protein) (P46976 whole entry partner): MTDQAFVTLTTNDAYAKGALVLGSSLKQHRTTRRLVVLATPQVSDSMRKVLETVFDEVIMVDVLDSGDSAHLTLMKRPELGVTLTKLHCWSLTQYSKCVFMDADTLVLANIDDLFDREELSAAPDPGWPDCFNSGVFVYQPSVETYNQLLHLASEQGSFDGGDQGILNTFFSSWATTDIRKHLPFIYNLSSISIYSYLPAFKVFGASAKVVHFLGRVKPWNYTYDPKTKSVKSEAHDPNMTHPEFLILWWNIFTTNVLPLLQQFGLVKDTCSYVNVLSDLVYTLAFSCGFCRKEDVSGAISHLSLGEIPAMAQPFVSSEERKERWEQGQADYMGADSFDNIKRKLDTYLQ

Assay [3] concerns hGYS1 enzyme / glycogen synthesis in HeLa cells. Description: GYS1 cell based assay (glycogen synthesis, Glucose-glo). Set-up: species or system human. Conditions: Homo sapiens, HeLa, 24 h, 24 h incubation, 20 mM glucose, geometric mean of at least 2 runs. The gist of the method: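 HeLa cells starved 24 h in medium containing only 1× Glutamax were plated onto compound in medium with 20 mM glucose (1% DMSO final) for 24 h, 37 °C, 5% CO2. Acid lysates were Tris-quenched, glucoamylase-digested (pH 5.3, 1 h, 37 °C) and read by Glucose-glo luminescence. IC50 came from Hill fits, as geometric mean of ≥2 runs.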

Chain of hGYS1 enzyme (recombinant hGYS1/GN1 protein) (P13807 whole entry): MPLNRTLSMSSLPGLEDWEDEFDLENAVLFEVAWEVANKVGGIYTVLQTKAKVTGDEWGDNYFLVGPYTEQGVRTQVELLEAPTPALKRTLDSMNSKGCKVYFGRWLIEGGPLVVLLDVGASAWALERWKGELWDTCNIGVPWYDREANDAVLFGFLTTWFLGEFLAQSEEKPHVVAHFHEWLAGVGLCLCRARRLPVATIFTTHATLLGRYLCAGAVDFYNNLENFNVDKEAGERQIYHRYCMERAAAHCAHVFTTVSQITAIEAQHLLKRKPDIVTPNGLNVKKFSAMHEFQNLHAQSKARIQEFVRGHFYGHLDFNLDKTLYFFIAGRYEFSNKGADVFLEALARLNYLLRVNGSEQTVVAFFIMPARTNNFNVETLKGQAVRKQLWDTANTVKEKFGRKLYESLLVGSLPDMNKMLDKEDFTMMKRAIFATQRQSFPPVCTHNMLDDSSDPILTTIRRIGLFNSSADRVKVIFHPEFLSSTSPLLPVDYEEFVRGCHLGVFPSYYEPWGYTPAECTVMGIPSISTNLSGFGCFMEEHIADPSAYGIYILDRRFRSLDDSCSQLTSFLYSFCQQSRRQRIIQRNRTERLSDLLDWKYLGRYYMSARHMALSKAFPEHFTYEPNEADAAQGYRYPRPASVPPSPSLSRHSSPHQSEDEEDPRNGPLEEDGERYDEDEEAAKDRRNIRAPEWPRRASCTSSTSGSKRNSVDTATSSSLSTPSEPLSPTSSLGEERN
Chain of hGYS1 enzyme (recombinant hGYS1/GN1 protein) (P46976 whole entry partner): as the sequence (P46976 whole entry partner) above

Regarding `CC(C)c1ccc([C@@H](NC(=O)[C@@H]2C[C@@H](F)CN2C(=O)Cc2ncco2)c2ccccc2)nc1` [Compound 270, (2S,4R)-4-fluoro-1-[2-(1,3-oxazol-2-yl)acetyl]-N-[(S)-phenyl[5-(propan-2-yl)pyridin-2-yl]methyl]pyrrolidine-2-carboxamide], the IC50 was 96 nM in assay [1], above 100000 nM in assay [2] and 1400 nM in assay [3].
The like results for `Cc1cnc(CC(=O)N2C[C@H](F)C[C@H]2C(=O)N[C@@H](c2ccccc2)c2ccc(C(C)C)cn2)o1` [Compound 271, (2S,4R)-4-fluoro-1-[2-(5-methyl-1,3-oxazol-2-yl)acetyl]-N-[(S)-phenyl[5-(propan-2-yl)pyridin-2-yl]methyl]pyrrolidine-2-carboxamide] were, in that order, 36 nM, above 100000 nM and 870 nM.
The like results for `Cc1coc(CC(=O)N2C[C@H](F)C[C@H]2C(=O)N[C@@H](c2ccccc2)c2ccc(C(C)C)cn2)n1` [Compound 272] were, in that order, 54 nM, above 100000 nM and 710 nM.
The like results for `CC(C)c1ccc([C@@H](NC(=O)[C@@H]2C[C@@H](F)CN2C(=O)[C@H](C)NC(=O)N(C)C)c2ccccc2)nc1` [Compound 273, (2S,4R)-1-[(2S)-2-[(dimethylcarbamoyl)amino]propanoyl]-4-fluoro-N-[(S)-phenyl[5-(propan-2-yl)pyridin-2-yl]methyl]pyrrolidine-2-carboxamide] were, in that order, 149 nM, above 100000 nM and 1790 nM.
In the case of `CC(C)c1ccc([C@@H](NC(=O)[C@@H]2C[C@@H](F)CN2C(=O)[C@@H](C)NC(=O)N(C)C)c2ccccc2)nc1` [Compound 274, (2S,4R)-1-[(2R)-2-[(dimethylcarbamoyl)amino]propanoyl]-4-fluoro-N-[(S)-phenyl[5-(propan-2-yl)pyridin-2-yl]methyl]pyrrolidine-2-carboxamide], the results for the IC50 in assay [1], in assay [2] and in assay [3] were 264 nM, above 100000 nM and 3230 nM, respectively.
On to `Cc1nn(CC(=O)N2C[C@H](F)C[C@H]2C(=O)N[C@@H](c2ccccc2)c2ccc(C(C)C)cn2)c(=O)o1` [Compound 275, (2S,4R)-4-fluoro-1-[2-(5-methyl-2-oxo-2,3-dihydro-1,3,4-oxadiazol-3-yl)acetyl]-N-N-[(S)-phenyl[5-(propan-2-yl)pyridin-2-yl]methyl]pyrrolidine-2-carboxamide], for which the IC50 in assay [1] is 76 nM; in assay [2], above 100000 nM; in assay [3], 1050 nM.
Taken in the same sequence, the figures for `CC(C)c1ccc([C@@H](NC(=O)[C@@H]2C[C@@H](F)CN2C(=O)Cn2ncc(N3CCC3)n2)c2ccccc2)nc1` [Compound 276, (2S,4R)-1-{2-[4-(azetidin-1-yl)-2H-1,2,3-triazol-2-yl]acetyl}-4-fluoro-N-[(S)-phenyl[5-(propan-2-yl)pyridin-2-yl]methyl]pyrrolidine-2-carboxamide] were 20 nM, above 100000 nM and 400 nM.
Taken in the same sequence, the figures for `CC(C)c1ccc([C@@H](NC(=O)[C@@H]2C[C@@H](F)CN2C(=O)Cn2ncc(N3CC(F)(F)C3)n2)c2ccccc2)nc1` [Compound 277, (2S,4R)-1-{2-[4-(3,3-difluoroazetidin-1-yl)-2H-1,2,3-triazol-2-yl]acetyl}-4-fluoro-N-[(S)-phenyl[5-(propan-2-yl)pyridin-2-yl]methyl]pyrrolidine-2-carboxamide] were 31 nM, above 100000 nM and 650 nM.
Regarding `CCN(CC)c1cnn(CC(=O)N2C[C@H](F)C[C@H]2C(=O)N[C@@H](c2ccccc2)c2ccc(C(C)C)cn2)n1` [Compound 278, (2S,4R)-1-{2-[4-(diethylamino)-2H-1,2,3-triazol-2-yl]acety}-4-fluoro-N-N-[(S)-phenyl[5-(propan-2-yl)pyridin-2-yl]methyl]pyrrolidine-2-carboxamide], the IC50 was 11 nM in assay [1], above 100000 nM in assay [2] and 230 nM in assay [3].
The like results for `CC(C)c1ccc([C@@H](NC(=O)[C@@H]2[C@H]3C[C@H]3CN2C(=O)Cc2cnn[nH]2)c2ccccc2)nc1` [Compound 279, (1S,2S,5R)-N-[(S)-phenyl[5-(propan-2-yl)pyridin-2-yl]methyl]-3-[2-(1H-1,2,3-triazol-5-yl)acetyl]-3-azabicyclo[3.1.0]hexane-2-carboxamide] were, in that order, 234 nM, above 100000 nM and 2310 nM.
`CC(C)c1ccc([C@@H](NC(=O)[C@@H]2CC[C@H](C)N2C(=O)Cc2cnn[nH]2)c2ccccc2)nc1` [Compound 280, (2S,5S)-5-methyl-N-[(S)-phenyl[5-(propan-2-yl)pyridin-2-yl]methyl]-1-[2-(1H-1,2,3-triazol-5-yl)acetyl]pyrrolidine-2-carboxamide]: the figures for the IC50 in assay [1], in assay [2] and in assay [3] were 149 nM, above 100000 nM and 1530 nM, respectively.
In the case of `CC(C)c1ccc([C@@H](NC(=O)[C@@H]2C[C@@H](F)CN2C(=O)CNC(=O)N2CCN(CC(F)(F)F)CC2)c2ccccc2)nc1` [Compound 281, N-{2-[(2S,4R)-4-fluoro-2-{[(S)-phenyl[5-(propan-2-yl)pyridin-2-yl]methyl]carbamoyl}pyrrolidin-1-yl]-2-oxoethyl}-4-(2,2,2-trifluoroethyl)piperazine-1-carboxamide], the results for the IC50 in assay [1], in assay [2] and in assay [3] were 59 nM, above 100000 nM and 1560 nM, respectively.
Consider `CC(C)c1ccc([C@@H](NC(=O)[C@@H]2C[C@@H](F)CN2C(=O)CNC(=O)N2CCN(CC3CC3)CC2)c2ccccc2)nc1` [Compound 282, 4-(cyclopropylmethyl)-N-{2-[(2S,4R)-4-fluoro-2-{[(S)-phenyl[5-(propan-2-yl)pyridin-2-yl]methyl]carbamoyl}pyrrolidin-1-yl]-2-oxoethyl}piperazine-1-carboxamide], for which the values for the IC50 in assay [1], in assay [2] and in assay [3] were 49 nM, above 100000 nM and 4180 nM, respectively.
Taken in the same sequence, the figures for `CC(C)c1ccc([C@@H](NC(=O)[C@@H]2C[C@@H](F)CN2C(=O)CNC(=O)N2CCN(C)CC2)c2ccccc2)nc1` [Compound 283, N-{2-[(2S,4R)-4-fluoro-2-{[(S)-phenyl[5-(propan-2-yl)pyridin-2-yl]methyl]carbamoyl}pyrrolidin-1-yl]-2-oxoethyl}-4-methylpiperazine-1-carboxamide] were 58 nM, above 100000 nM and 2400 nM.
The like results for `CC(C)c1ccc([C@@H](NC(=O)[C@@H]2C[C@@H](F)CN2C(=O)Cc2n[nH]c(=O)[nH]2)c2ccccc2)nc1` [Compound 284, (2S,4R)-4-fluoro-1-[2-(5-oxo-4,5-dihydro-1H-1,2,4-triazol-3-yl)acetyl]-N-[(S)-phenyl[5-(propan-2-yl)pyridin-2-yl]methyl]pyrrolidine-2-carboxamide] were, in that order, 90 nM, above 100000 nM and 5190 nM.
The like results for `CC(C)c1ccc([C@@H](NC(=O)[C@@H]2C[C@@H](F)CN2C(=O)CCc2n[nH]c(=O)[nH]2)c2ccccc2)nc1` [Compound 287, (2S,4R)-4-fluoro-1-[3-(5-oxo-4,5-dihydro-1H-1,2,4-triazol-3-yl)propanoyl]-N-[(S)-phenyl[5-(propan-2-yl)pyridin-2-yl]methyl]pyrrolidine-2-carboxamide] were, in that order, 124 nM, above 100000 nM and 11800 nM.
Consider `O=C(N[C@@H](c1ccccc1)c1ccc(C2CC2)c(F)n1)[C@@H]1C[C@@H](F)CN1C(=O)Cn1nnnc1C(F)F` [Compound 293, (2S,4R)-N-((S)-(5-cyclopropl-6-fluoropyridin-2-yl)(phenyl)methyl)-1-(2-(5-(difluoromethyl)-1H-tetrazol-1-yl)acetyl)-4-fluoropyrrolidine-2-carboxamide], for which the IC50 in assay [1] is 38 nM; in assay [2], above 100000 nM; in assay [3] it was 660 nM.
The like results for `O=C(N[C@@H](c1ccccc1)c1ccc(C2CC2)c(F)n1)[C@@H]1C[C@@H](F)CN1C(=O)Cn1cnc2ccccc21` [Compound 294, (2S,4R)-1-[2-(1H-1,3-benzodiazol-1-yl)acetyl]-N-[(S)-(5-cyclopropyl-6-fluoropyridin-2-yl)(phenyl)methyl]-4-fluoropyrrolidine-2-carboxamide] were, in that order, 6 nM, above 100000 nM and 160 nM.
Regarding `Cc1cn(CC(=O)N2C[C@H](F)C[C@H]2C(=O)N[C@@H](c2ccccc2)c2ccc(C3CC3)c(F)n2)c(=O)[nH]c1=O` [Compound 295, (2S,4R)-N-[(S)-(5-cyclopropyl-6-fluoropyridin-2-yl)(phenyl)methyl]-4-fluoro-1-[2-(5-methyl-2,4-dioxo-1,2,3,4-tetrahydropyrimidin-1-yl)acetyl]pyrrolidine-2-carboxamide], the IC50 in assay [1] was 13 nM; in assay [2], above 100000 nM; in assay [3], 590 nM.
Consider `O=C(N[C@@H](c1ccccc1)c1ccc(C2CC2)c(F)n1)[C@@H]1C[C@@H](F)CN1C(=O)Cn1cnnc1` [Compound 296, (2S,4R)-N-[(S)-(5-cyclopropyl-6-fluoropyridin-2-yl)(phenyl)methyl]-4-fluoro-1-[2-(4H-1,2,4-triazol-4-yl)acetyl]pyrrolidine-2-carboxamide], for which the IC50 is 87 nM in assay [1], above 100000 nM in assay [2] and 4440 nM in assay [3].
